# In patent US10598672B2, “Methods and compositions for diagnosing and treating loss and/or distortion of taste or smell” (Cyrano Therapeutics, Inc., priority 2014, dated 2020):
# Legend:
# patients with hyposmia = conditions: previous open-label controlled clinical trial, 312 patients with hyposmia and hypogeusia, oral; cited from earlier work
# [1] = system: patients with taste dysfunction; experiment: Subjective taste acuity and flavor perception (0-100 scale); format: in vivo, human; conditions: for FLAVOR PERCEPTION: DEGREE OF IMPROVEMENT / TASTE ACUITY: DEGREE OF IMPROVEMENT: Mean ± SEM
# Protocol: Subjective statements of acuity loss were quantitated by use of a scale from 0-100 with 100 reflecting total loss of taste function, 0 reflecting no loss and a number between 0-100 reflecting appropriate degree of loss. Mean±SEM of loss degree was measured among all patients and each pathology initiating taste dysfunction.
# Subjective statements of taste acuity loss and loss of flavor perception were quantitated by use of a scale from 0-100 with 100 reflecting total loss of taste acuity or flavor perception, 0 reflecting no loss and a number between 0-100 reflecting appropriate degree of loss. […] Mean±SEM of loss degree was measured among all patients and each pathology initiating taste dysfunction.
# […] Saliva Shh and measurements of taste function by use of subjective responses of acuity and flavor perception and in olfactometry was measured at intervals of 2-6 months in these patients.
# [2] = system: patients with hyposmia and hypogeusia; experiment: Open-label pilot study oral vs intranasal theophylline: subjective smell and taste function by questionnaire (0-100); format: in vivo, human
# Description: We performed an open-label pilot study in patients with hyposmia and hypogeusia under the following 3 conditions: (1) before treatment, (2) after oral theophylline treatment, and (3) after intranasal theophylline treatment. Under each condition, we performed subjective evaluations of taste or smell functions, quantitative measurements of taste (gustometry) and smell (olfactometry), and measurements of serum theophylline level and body weight.
# Subjective changes in smell and taste function under each study condition were measured by questionnaire before measurements of smell or taste function. Responses were graded on a scale from 0 to 100, with 0 reflecting no subjective response in overall sensory function; 100, return to normal sensory function; and values between 0 and 100 intermediate responses. Overall sensory function was defined as the ability to smell all odors and identify all tastants, although response intensity varied.
# The 10 patients in this intranasal pilot study entered into the previous oral theophylline study according to a protocol approved by the institutional review board of the Georgetown University Medical Center. In this prior trial, oral theophylline was administered daily in 2 divided doses (at breakfast and lunch) of 200, 400, 600, or 800 mg for 2 to 12 months of treatment. Treatment was divided into 2- to 4-month periods, at which time patients returned to The Clinic for measurements of subjective sensory responses, olfactometry, gustometry, serum theophylline level, and body weight. […] In the 10 patients selected for the intranasal pilot study, oral theophylline treatment was discontinued 3 weeks to 4 months before initiation of the intranasal drug trial. At that time, the mean (SEM) serum theophylline level was unmeasurable in any patient (0 [0] mg/L).
# A pilot study of intranasal theophylline treatment was then initiated among these 10 patients. This trial was an investigator initiated phase 1, open-label, single-source, controlled pilot study. Intranasal drug therapy reflected a compassionate trial of a potentially more useful therapeutic method to improve hyposmia (and hypogeusia) than oral theophylline. Before the intranasal trial, risks and benefits were explained and the patients signed an informed consent.
# The intranasal administration device was a calibrated 1 mL syringe fitted with a nozzle that fit comfortably into the anterior naris (Wolfe Tory Medical, Inc.) and loaded under sterile conditions with 20 μg of theophylline methylpropyl paraben in a 0.4-mL saline solution (Foundation Care). Patients were instructed to direct the spray superiorly into the nasal cavity but not posteriorly into the nasopharynx. This technique was practiced before study initiation with sterile saline.
# Each patient delivered the theophylline dose in each naris once daily throughout the study. Patients underwent evaluation 1, 2, and 4 weeks during drug use with the same measurements used for the oral study.
# Values for the oral trial were taken from the last measurements made before discontinuation of oral drug treatment and before initiation of the intranasal trial. This period varied from 2 to 12 months after oral treatment initiation and reflected the maximal improvement in sensory function each patient experienced. Values for the intranasal pilot study were taken from measurements obtained after completion of 4 weeks of intranasal treatment.
# The mean and standard error of the mean for all values obtained at each study condition were compared. Differences were considered significant if P<0.05 by the unpaired t test. Paired comparison tests were also used with differences considered significant if P<0.05 by the t test.
# [3] = MEN, patient number 38, after oral theophylline
# [4] = WOMEN, patient number 41, after oral theophylline
# [5] = all patients, patient number 79, after oral theophylline
# [6] = after discontinuation of intranasal treatment
smiles,measurement,setting,value
Cn1c(=O)c2[nH]cnc2n(C)c1=O [theophylline],patients in whom hyposmia was successfully corrected,patients with hyposmia,more than 50%
same,FLAVOR PERCEPTION: I[…],[1]; [3],22
same,"FLAVOR PERCEPTION: I[…], figure in parentheses",[1]; [3],58
same,TASTE ACUITY: I[…],[1]; [3],21
same,"TASTE ACUITY: I[…], figure in parentheses",[1]; [3],55
same,FLAVOR PERCEPTION: DEGREE OF IMPROVEMENT,[1]; [3],18 ± 4%
same,TASTE ACUITY: DEGREE OF IMPROVEMENT,[1]; [3],20 ± 5%
same,FLAVOR PERCEPTION: I[…],[1]; [4],23
same,"FLAVOR PERCEPTION: I[…], figure in parentheses",[1]; [4],54
same,TASTE ACUITY: I[…],[1]; [4],24
same,"TASTE ACUITY: I[…], figure in parentheses",[1]; [4],59
same,FLAVOR PERCEPTION: DEGREE OF IMPROVEMENT,[1]; [4],36 ± 6%
same,TASTE ACUITY: DEGREE OF IMPROVEMENT,[1]; [4],35 ± 6%
same,patients with improvement in both subjective taste acuity and flavor perception,[1]; after oral treatment 200-1000 mg for 2-10 months,about 60%
same,FLAVOR PERCEPTION: I[…],[1]; [5],45
same,"FLAVOR PERCEPTION: I[…], figure in parentheses",[1]; [5],63
same,TASTE ACUITY: I[…],[1]; [5],45
same,"TASTE ACUITY: I[…], figure in parentheses",[1]; [5],63
same,FLAVOR PERCEPTION: DEGREE OF IMPROVEMENT,[1]; [5],24 ± 4%
same,TASTE ACUITY: DEGREE OF IMPROVEMENT,[1]; [5],28 ± 4^+ %
same,patients reporting some persistence of improvement after 10 weeks,[2]; [6],Four
same,patients with loss of smell and taste function after 6 weeks,[2]; [6],2 patients
same,patients with loss of smell and taste function within 1 week of discontinuation,[2]; [6],2 patients
same,earliest improvement measured after starting treatment,[2]; intranasal treatment,1 week
same,improvement measured for taste or smell functions compared with oral treatment,"[2]; intranasal, 4 weeks, subjective",2 fold
same,patients who reported no improvement,"[2]; of 10 patients, intranasal treatment",2 patients
same,patients with improved taste or smell acuity / overall improvement in taste or smell functions,"[2]; of 10 patients, intranasal, 20 μg in each naris once daily, 4 weeks",8 patients
same,patients who reported no improvement,"[2]; of 10 patients, oral treatment",4 patients
same,patients with improved taste or smell acuity / overall increased taste or smell function,"[2]; of 10 patients, oral, 200 to 800 mg/d for 2 to 12 months",6 patients
same,earliest improvement of hyposmia measured after,[2]; oral treatment,2 months
